Measured values as given in patent US7354711B2, “Methods for inhibiting immunostimulatory DNA associated responses” (University of Iowa Research Foundation, priority 1997, dated 2008).

Assays:
[1] = tested on: WEHI 231 cells; assay: DNA fragmentation assay (α-sIgM-induced apoptosis); format: cell-based, mouse; conditions: 0.1 μM quinacrine, 6 μg/mL ODN 1760, α-sIgM, 16 hours
Method: The DNA fragmentation assay was carried out generally as follows. WEHI 231 cells were incubated with 0.5 μCi/milliliter [^3H] thymidine for 3 hours, centrifuged, resuspended in 2 milliliters of fresh medium at 2×10^5/milliliter, and incubated in a 24-well plate with additions as indicated. After incubation for 16-18 hours, 1 milliliter aliquots of the cells were centrifuged, washed with 200 μliters PBS. This suspension was drawn into a pipette tip containing 25 μliters of 2% SDS, and the mixture was immediately ejected into a well of a 0.8% agarose TBE gel containing 0.5 μliter/milliliter ethidium bromide. The gel was electrophoresed for 1 hour at 65 volts, destained in water, and photographed under ultraviolet light. The lanes of the gel were cut into three approximately equal portions. […] The gel portions were melted in glass scintillation vials and mixed with a 20 milliliter of scintillation cocktail and counted in a scintillation counter. The amount of fragmented DNA (DNA in the second and third gel pieces) was expressed as a percentage of the total counts recovered in the lane.
Referring to the experiments summarized in FIG. 2a, WEHI 231 cells (2×10^5 per milliliter) were incubated with or without 6 μgrams/milliliter ODN 1760, 10 μgrams/milliliter α-sIgM, or 0.1 μM quinacrine as indicated. Live cells were counted daily. […]

[2] = tested on: human peripheral blood mononuclear cells (PBMC); assay: ODN 1760-induced IL-6 production in human peripheral blood mononuclear cells; format: cell-based; conditions: 24 hours
Method: Referring to the experiments summarized in FIG. 9, human peripheral blood mononuclear cells (PBMC) from three donors were incubated with or without ODN 1760 and the indicated concentration of test compound. After 24 hours, the concentration of IL-6 was determined in the supernatant. The figure indicates the percentage of IL-6 in reference to ODN-treated cells. The IL-6 amounts for control sample per donor were as follows: donor 1, 203 picograms/milliliter; donor 2, 71.5 picograms/milliliter; donor 3, 465 picograms/milliliter. IL-6 measured from untreated cells was 0-21 picograms/milliliter. Results from the three donors were averaged, and error bars indicate 1 standard deviation.

[3] = tested on: WEHI 231 cells; assay: Protection by lipopolysaccharide against α-sIgM-induced inhibition of [3H] thymidine uptake; format: cell-based, mouse; conditions: 0.1 μM quinacrine, concentration that completely reversed the effect of ODN 1760
Method: (§1) The assay of [^3H] Thymidine incorporation was carried out as follows. WEHI 231 cells (200 μL at 2×10^5/milliliter, in duplicate or triplicate) were incubated in a 96-well plate (Costar, Cambridge Mass.). Additions were made as indicated. After incubating for 16 hours, 0.5 μCi [methyl-^3H] thymidine (2 Ci/millimole, DuPont NEN, Boston Mass.) was added to each well, and the cells were incubated for another 4 hours. Cellular DNA was then captured onto glass fiber filters (Whatman 934AH) using a cell harvester (Brandel, Gaithersberg Md.). The filters were dried, placed into plastic scintillation vials with 10 milliliters of scintillation cocktail (EconoSafe, Research Products International, Mount Prospect Ill.), and counted in a liquid scintillation counter (Beckman LS-3133 T). The ^3H recovered on the filter was expressed as a fraction of the ^3H added. In a typical experiment, WEHI 231 cells incorporate about 15% of added ^3H.
In the experiments summarized in FIG. 5, the influence of LPS on α-sIgM-induced suppression of thymidine incorporation was examined.
Lipopolysaccharide (LPS) was added at the indicated concentration with or without 10 μgrams/milliliter α-sIgM and 0.1 μM quinacrine. The small degree of protection against α-sIgM-induced inhibition of [^3H] thymidine uptake afforded by LPS is not influenced by quinacrine.

[4] = tested on: WEHI 231 cells; assay: Protection by ODN 1760 against C2-ceramide-induced inhibition of [3H] thymidine uptake; format: cell-based, mouse; conditions: 0.1 μM quinacrine, 6 μg/mL ODN
Method: as §1
Referring to the experiments summarized in FIG. 6, WEHI 231 cells were incubated with C2-ceramide as indicated with or without 6 μgrams/milliliter ODN and 0.1 μM quinacrine and thymidine incorporation was estimated. Referring to the experiments summarized in FIG. 7, WEHI 231 cells were prelabeled with 0.5 μCi/milliliter [^3H] thymidine for 3 hours, and resuspended in fresh medium containing 10 nM thapsigargin. […]

[5] = tested on: WEHI 231 cells; conditions: 0.1 μM quinacrine
Method: Unless otherwise noted, cell culture conditions were as follows. WEHI 231 cells (ATTC #CRL 1702) were grown in log phase in a medium of RPMI 1640 supplemented with 10% fetal bovine serum (heat inactivated at 65° C. for one hour), 0.3 grams/Liter of L-glutamine, 50 milligrams/Liter gentamycin, and 0.05 mM 2-mercaptoethanol in a 37° C. humid atmosphere with 5% CO2. WEHI 231 cells were diluted with 0.4% trypan blue in phosphate-buffered saline (PBS) and live cells were counted in a hemocytometer chamber. Cells were resuspended in medium at 2×10^5/milliliter in 24-well tissue culture plates (Costar, Cambridge Mass.). Appropriate additions were made, and the cells were incubated and counted daily. WEHI 231 cells were diluted with fresh medium if the concentration exceeded 7×10^5/milliliter.
Referring to the experiments summarized in FIG. 2a, WEHI 231 cells (2×10^5 per milliliter) were incubated with or without 6 μgrams/milliliter ODN 1760, 10 μgrams/milliliter α-sIgM, or 0.1 μM quinacrine as indicated. Live cells were counted daily. The cells were diluted in medium if their concentration exceeded 7×10^5 per milliliter.

## CCN(CC)CCCC(C)Nc1c2ccc(Cl)cc2nc2ccc(OC)cc12 (stereo not drawn) [quinacrine]
[1]
  Reversal of ODN 1760 protection, percentage of fragmented DNA (FIG. 2b): reversed this protection
[2]
  Effect on ODN 1760-induced IL-6 production (FIG. 9): inhibited
[3]
  Effect on the action of LPS (FIG. 5): no effect
[4]
  Block of ODN 1760 protection against C2-ceramide (FIG. 6): blocked this protective effect
[5]
  Influence of compound alone on cell growth and on cell death induced by α-sIgM: influenced neither cell growth nor cell death
[5]; 6 μg/mL ODN 1760, 10 μg/mL α-sIgM
  Reversal of ODN 1760 protection, cell count over a period of three days (FIG. 2a): reversed this protection
